From patent publication US12377052B2, “Dual-responsive nanoparticles for enhanced antibacterial efficacy” (priority 2020, dated 2025)
Values after ≈ are worked out from the molar mass of the structure shown. Like-named read-outs stand apart in the source and are kept apart here.

Legend:
MRSA (ATCC 33591) = assay: MIC, broth microdilution; format: cell-based, S. aureus
Experimental: (§1) Bacterial strains. S. aureus Newman was kindly provided by Prof. Douglas Weibel; E. coli ATCC25922, S. aureus ATCC 33591 and P. aeruginosa ATCC 27853 were purchased from ATCC. E. coli DH5a was purchased from Thermo Fisher. These bacteria were grown in Mueller Hinton Broth (MHB) media (Criterion, Santa Maria, CA, USA). M. smegmatis mc^2155 strain was kindly provided by Prof. Adel M. Talaat's laboratory, and it was grown in Middlebrook 7H9 broth (HiMedia, West Chester, PA, USA).
(§2) Minimal inhibitory concentration (MIC) measurements. The MIC of the different treatments on various bacteria strains was determined using the Clinical Laboratory Standards Institute broth microdilution method^8. Briefly, broth media (100 μL) containing two-fold serial dilutions of each compound were placed into a 96-well tissue culture plate. Each bacterial strain was taken from an exponentially growing culture and diluted to 5×10^6 CFU/mL. Ten microliters of such microbial suspension was inoculated in each well of the plate, resulting in a final bacteria concentration of approximately 5×10^5 CFU/mL. The bacteria were cultured at 37° C. for one day and their growth was observed by reading the optical density (OD) at 600 nm. The MIC was determined as the treatment concentration at which no microbial growth was observed. Broth containing microbial cells alone was used as a positive control and broth without bacteria inoculation was used as a negative control. Each test was carried out in 3 replicates.

[1] = tested on: P. aeruginosa (ATCC 27853); assay: MIC, broth microdilution; format: cell-based
Experimental: as §1, §2

MRSA = assay: Checkerboard assay, FIC index; format: cell-based, S. aureus; settings: antibiotic with the PBAE-G polymer
Experimental: (§3) Fractional inhibitory concentration (FIC) measurement. The synergy between the cationic polymer and antibiotic was assessed by checkerboard assays. The two antibacterial components were mixed in a 96-well plate with serial two-dimensional dilutions. Bacteria were inoculated in each well of the plate and their growth, reflected by the OD600 value, was monitored. The synergy effect was evaluated by calculating the FIC index according to the formula below:
(§4) [formula] MICA^Comb and MICB^Comb indicate the MICS of the two components in combination. The interactions between the two components are defined according to standard criteria of considering FIC≤0.5 as synergistic; 0.5<FIC≤1 as additive; 1<FIC≤4 as indifference; and FIC>4 as antagonism.

[2] = tested on: P. aeruginosa (ATCC 27853); assay: Checkerboard assay, FIC index; format: cell-based; settings: for FIC index: antibiotic with the PBAE-G polymer
Experimental: as §3, §4

E. coli (ATCC 25922) = assay: MIC, broth microdilution; format: cell-based; settings: Escherichia coli, ATCC25922; no pH/H2O2 stimulus stated
Experimental: as §1, §2

E. coli (DH5 alpha) = assay: MIC, broth microdilution; format: cell-based; settings: Escherichia coli; no pH/H2O2 stimulus stated
Experimental: as §1, §2

M. smegmatis (MC^2 155) [3] = assay: MIC, broth microdilution; format: cell-based; settings: Mycolicibacterium smegmatis, MC^2155; no pH/H2O2 stimulus stated
Experimental: as §1, §2

S. aureus (Newman) = assay: MIC, broth microdilution; format: cell-based; settings: Staphylococcus aureus, no pH/H2O2 stimulus stated
Experimental: as §1, §2

M. smegmatis (MC^2 155) [4] = assay: Checkerboard assay, FIC index; format: cell-based; settings: low pH and high ROS condition
Experimental: as §3, §4

[5] = tested on: Raw 264.7 murine macrophage cells; assay: Cell viability test (MTT assay); format: cell-based; settings: Mus musculus, RAW264.7, 24 h, one day treatment
Experimental: Cell viability test. Cytotoxicity of different NP components was tested using MTT assays. Raw 264.7 murine macrophage cells were seeded onto a 96-well plate (1×10^4 cells/well) and cultured overnight. The cells were then treated with free antibiotic, PBAE-G polymer or NP with serial dilutions for one day and their viability was measured by a standard MTT assay. Data were collected by monitoring the difference between the absorbance at 560 nm and 650 nm using a GloMax-Multi Microplate Multimode Reader (Promega, WI, USA).

MRSA biofilm = assay: Biofilm inhibition assay (crystal violet); format: cell-based, S. aureus; settings: 32 μg/mL
Experimental: Biofilm inhibition assays. Exponentially growing bacteria were inoculated into 96 well plates (1×10^4 cell/well) containing MHB broth with 2% (w/v) glucose, and incubated under stationary conditions at 37° C. for one day. After biofilm formation, the medium was discarded, and the plates were washed with PBS to remove the planktonic bacteria. Fresh MHB broth containing serially diluted free rifampicin or NP was added to the plates and incubated at 37° C. for another 24 h. The media in each well was then removed, and the plates were washed carefully with PBS one time. The biofilm in each well was fixed with 95% ethanol for 15 min and stained with 0.1% crystal violet for 15 min. After the biofilm was washed with Milli-Q water for three times, 33% v/v acetic acid (100 μL/well) was added to the plate to solubilize the crystal violet staining. OD 560 in each well was read to assess the biofilm formation.

E. coli ATCC 25922 = assay: Evaluation of antibiotic resistance development (serial passaging); format: cell-based; settings: sub-lethal dose (0.5 MIC), after 20 passages
Experimental: Evaluation of antibiotic resistance development. […] The OD 600 value in each tube was examined to determine the MIC, and the bacteria cultured in the tube containing rifampicin at a ½ MIC was used for passage. The MIC for each passage was recorded and compared to that of the first passage to determine the drug resistance enhancement.

[6] = Table 1, antibiotic alone, in µg/mL (unit assumed)

## O=C(O)c1cn(C2CC2)c2cc(N3CCNCC3)c(F)cc2c1=O [Ciprofloxacin]
MRSA (ATCC 33591); Table 1, antibiotic alone
  MIC: 0.5 µg/mL (≈ 1.51 µM)
[1]; [6]
  MIC: 0.25
MRSA
  FIC index: 2
[2]
  FIC index: 1

## [H]/N=C(/N)N[C@H]1[C@H](O)[C@@H](O)[C@H](O[C@@H]2O[C@@H](C)[C@](O)(C=O)[C@H]2O[C@@H]2O[C@@H](CO)[C@H](O)[C@@H](O)[C@@H]2NC)[C@@H](N/C(N)=N\[H])[C@@H]1O [Streptomycin]
MRSA (ATCC 33591); Table 1, antibiotic alone
  MIC: 16 µg/mL (≈ 27.5 µM)
[1]; [6]
  MIC: 16
MRSA
  FIC index: 0.266
[2]
  FIC index: 0.25

## CC1(C)S[C@@H]2[C@H](NC(=O)[C@H](N)c3ccc(O)cc3)C(=O)N2[C@H]1C(=O)O [Amoxicillin]
MRSA (ATCC 33591); Table 1, antibiotic alone
  MIC: 128 µg/mL (≈ 350 µM)
[1]; [6]
  MIC: 1024
MRSA
  FIC index: 0.75
[2]
  FIC index: 2

## CCC[C@@H]1C[C@@H](C(=O)N[C@@H]([C@H]2O[C@H](SC)[C@H](O)[C@@H](O)[C@H]2O)[C@H](C)Cl)N(C)C1 [Clindamycin]
MRSA (ATCC 33591); Table 1, antibiotic alone
  MIC: 32 µg/mL (≈ 75.3 µM)
[1]; [6]
  MIC: >1024
MRSA
  FIC index: 0.562
[2]
  FIC index: <0.25

## CO[C@H]1/C=C/O[C@@]2(C)Oc3c(C)c(O)c4c(O)c(c(/C=N/N5CCN(C)CC5)c(O)c4c3C2=O)NC(=O)/C(C)=C\C=C\[C@H](C)[C@H](O)[C@@H](C)[C@@H](O)[C@@H](C)[C@H](OC(C)=O)[C@@H]1C [Rifampicin]
MRSA (ATCC 33591); Staphylococcus aureus, no pH/H2O2 stimulus stated, read-out: MIC MRSA (ATCC 33591)
  MIC: 0.016 µg/mL (≈ 0.0194 µM)
MRSA (ATCC 33591); Table 1, antibiotic alone
  MIC: 0.016 µg/mL (≈ 0.0194 µM)
E. coli (ATCC 25922)
  MIC: 16 µg/mL (≈ 19.4 µM)
E. coli (DH5 alpha)
  MIC: 16 µg/mL (≈ 19.4 µM)
M. smegmatis (MC^2 155) [3]
  MIC: 128 µg/mL (≈ 156 µM)
[1]; Pseudomonas aeruginosa, ATCC27853, no pH/H2O2 stimulus stated, read-out: MIC P. aeruginosa (ATCC 27853)
  MIC: 32 µg/mL (≈ 38.9 µM)
[1]; [6]
  MIC: 32
S. aureus (Newman)
  MIC: 0.016 µg/mL (≈ 0.0194 µM)
MRSA
  FIC index: 1
M. smegmatis (MC^2 155) [4]
  FIC index between rifampicin and the PBAE-G-B polymer: 0.25
[2]
  FIC index: 0.25
[2]; low pH and high ROS condition
  FIC index between rifampicin and the PBAE-G-B polymer: 0.188
[5]
  IC50: 210 µg/mL (≈ 255 µM)
MRSA biofilm
  biofilm remained: More than 80%
E. coli ATCC 25922
  MIC increase compared to initial: 40 fold

## CN[C@H](CC(C)C)C(=O)N[C@H]1C(=O)N[C@@H](CC(N)=O)C(=O)N[C@H]2C(=O)N[C@H]3C(=O)N[C@H](C(=O)N[C@H](C(=O)O)c4cc(O)cc(O)c4-c4cc3ccc4O)[C@H](O)c3ccc(c(Cl)c3)Oc3cc2cc(c3O[C@@H]2O[C@H](CO)[C@@H](O)[C@H](O)[C@H]2O[C@H]2C[C@](C)(N)[C@H](O)[C@H](C)O2)Oc2ccc(cc2Cl)[C@H]1O [Vancomycin]
MRSA (ATCC 33591); Table 1, antibiotic alone
  MIC: 1 µg/mL (≈ 0.69 µM)
[1]; [6]
  MIC: 1024
MRSA
  FIC index: 1
[2]
  FIC index: 2

## Gentamicin
MRSA (ATCC 33591); Table 1, antibiotic alone
  MIC: 1 µg/mL
[1]; [6]
  MIC: 1
MRSA
  FIC index: 0.5
[2]
  FIC index: 0.375
